# Measured values as given in paper PMC6771811, “The structure of a GH149 β‐(1 → 3) glucan phosphorylase reveals a new surface oligosaccharide binding site and additional domains that are absent in the disaccharide‐specific GH94 glucose‐β‐(1 → 3)‐glucose (laminaribiose) phosphorylase” (Proteins, 2019).
# Molecular target: T1, Pro_7066 (uncultured bacterium, UniProt Z9M604V374)
# T1 construct: His6-tagged, pET28a, E. coli BL21 (DE3); tag removal not mentioned; 130-kDa chain, homodimer; domains span residues 1-1156; GH149
# T1 sequence (Z9M604V374 20-1175): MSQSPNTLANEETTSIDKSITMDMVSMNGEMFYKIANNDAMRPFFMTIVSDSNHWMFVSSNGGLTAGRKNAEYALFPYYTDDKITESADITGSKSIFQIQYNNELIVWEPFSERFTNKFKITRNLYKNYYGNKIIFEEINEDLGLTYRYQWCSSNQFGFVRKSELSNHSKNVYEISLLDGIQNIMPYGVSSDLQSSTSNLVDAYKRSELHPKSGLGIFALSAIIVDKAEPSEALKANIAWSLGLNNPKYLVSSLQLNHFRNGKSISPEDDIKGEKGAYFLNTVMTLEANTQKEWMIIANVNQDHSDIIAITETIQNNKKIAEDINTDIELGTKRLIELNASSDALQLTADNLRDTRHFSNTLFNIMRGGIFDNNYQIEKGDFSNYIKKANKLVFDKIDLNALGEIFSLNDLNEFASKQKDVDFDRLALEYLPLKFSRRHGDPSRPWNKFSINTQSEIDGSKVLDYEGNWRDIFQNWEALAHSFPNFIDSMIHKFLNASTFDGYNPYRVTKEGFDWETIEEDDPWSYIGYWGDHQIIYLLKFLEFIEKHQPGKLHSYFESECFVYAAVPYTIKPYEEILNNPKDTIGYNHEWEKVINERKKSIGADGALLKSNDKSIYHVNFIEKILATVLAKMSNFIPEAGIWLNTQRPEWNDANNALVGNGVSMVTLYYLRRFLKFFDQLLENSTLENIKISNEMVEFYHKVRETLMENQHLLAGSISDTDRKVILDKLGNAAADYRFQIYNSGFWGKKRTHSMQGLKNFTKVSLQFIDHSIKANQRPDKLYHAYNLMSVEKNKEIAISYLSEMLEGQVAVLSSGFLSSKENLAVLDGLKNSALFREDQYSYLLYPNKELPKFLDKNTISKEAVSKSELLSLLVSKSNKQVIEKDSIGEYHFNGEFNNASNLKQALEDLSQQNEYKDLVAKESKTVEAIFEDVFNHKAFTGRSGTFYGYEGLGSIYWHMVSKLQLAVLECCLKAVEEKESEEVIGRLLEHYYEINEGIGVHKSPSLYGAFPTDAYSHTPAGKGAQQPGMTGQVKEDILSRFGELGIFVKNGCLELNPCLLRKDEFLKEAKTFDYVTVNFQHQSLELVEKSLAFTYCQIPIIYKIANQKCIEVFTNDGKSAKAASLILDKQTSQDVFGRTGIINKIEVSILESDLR
# Test: X-ray crystal structure (co-crystallization), […] Å
# Conditions: 8 mM G6, pH 9.0; surface binding site on catalytic domain, ~30 Å from active site; active site holds bicine and sulfate
smiles,measurement,value
"OC[C@H]1O[C@@H](O[C@@H]2[C@@H](O)[C@H](O[C@@H]3[C@@H](O)[C@H](O[C@@H]4[C@@H](O)[C@H](O[C@@H]5[C@@H](O)[C@H](O[C@H]6[C@H](O)[C@@H](CO)OC(O)[C@@H]6O)O[C@H](CO)[C@H]5O)O[C@H](CO)[C@H]4O)O[C@H](CO)[C@H]3O)O[C@H](CO)[C@H]2O)[C@H](O)[C@@H](O)[C@@H]1O (stereo partly shown) [G6, laminarihexaose]","X-ray crystal structure (co-crystallization), 2.25 Å",G6 bound to a SBS located on the solvent‐exposed surface of the catalytic domain
